Results reported in paper PMC6222487 (Molecules : A Journal of Synthetic Chemistry and Natural …, 2018).
Read-outs that look alike come from different tables or passages of the source.

Columns and labels:
[1] = target: T1, BuChE (from equine serum) (Equus caballus, UniProt P81908); test: biochemical; details: mean ± SEM
T1 construct: purchased Merck & Co; host or cells: equine serum
Description: (§1) Photometric 96-well microplates made from polystyrene (Thermo Scientific, Waltham, […]. USA) were used for measurement purposes.
(§2) AChE and BuChE inhibitory activities were measured by the spectrophotometric method of Ellman, with slight modification. Briefly, all in vitro assays were performed in 0.1 M NaH2PO4/Na2HPO4 buffer, pH 7.4, using a THERMO Enzyme-labeled Instrument. The enzyme solutions were prepared to obtain 2.0 units/mL in 2.0 mL aliquots. The assay medium (1 mL) consisted of phosphate buffer (pH 7.4), 10 μL of the enzyme, 30 μL of 0.01 M DTNB, and 30 μL of substrate (ATC or BTC) at a concentration of 0.01 M. The test and reference compounds were first dissolved in DMSO (5‰) and fetal bovine serum (1‰), and then diluted in 0.1 M NaH2PO4/Na2HPO4 buffer (pH 7.4) to provide a final concentration range. The inhibitors were added to the assay solution containing enzyme, buffer, and DTNB with pre-incubation for 20 min at 37 °C, prior to the addition of the substrate. The activity was determined by measuring the increase in absorbance at 410 nm at 1 min intervals at 37 °C. The data were calculated according to the method described by Ellman et al. Each concentration was assayed in triplicate. Blanks containing all of the components except AChE were included in the analyses.

[2] = target: T2, AChE (from electric eel) (Electrophorus electricus, UniProt O42275); test: biochemical; type: biochemical; details: for Selectivity Index = IC50 (BChE)/IC50 (AChE): IC50 BuChE/IC50 AChE; for IC50: mean ± SEM, NA = No potent inhibitory activity
T2 construct: purchased Merck & Co
Description: as §1, §2

[3] = target: T3, Aβ (1-42) (Homo sapiens, UniProt P05067); test: biochemical; details: self-induced aggregation, thioflavin-T; Aβ 20 μM, 37 °C, 24 h; NA = No potent inhibitory activity
T3 construct: Aβ (1-42) peptide (Sigma-Aldrich); purchased Sigma-Aldrich
Description: A Thioflavin T-based fluorometric assay was performed in order to investigate the self-induced Aβ (1-42) aggregation. Briefly, compounds to be tested were firstly dissolved in DMSO to obtain a 10 mM solution and then diluted in phosphate buffer (pH 7.4) to provide a final concentration range. […] After incubation, thioflavin-T (5 μM in 50 mM glycine-NaOH buffer, pH 8.0) was added into the above 96-well microplate and the samples were diluted to a final volume of 150 μL. […] Each inhibitor was run in triplicate.

[4] = test system: HepG2 cells; type: cell-based
Description: One of the best documented side-effects of the drug discovery and development of AD is cytotoxicity. To probe whether such a type of target compounds involves cytotoxic effects, we respectively treated HepG2 cells and SH-SY5Y cells with several concentrations of the corresponding compound. Cell viability was determined by a CCK-8 assay. […].
HepG2 cells (human hepatocellular liver carcinoma cell line from American Type Culture Collection, ATCC) were cultured in Eagle’s minimum essential medium (EMEM) supplemented with 10% heat-inactivated fetal bovine serum (FBS), and 100 U/mL of penicillin/streptomycin (Gino Biomedical Technology Co. LTD., Hangzhou, China). Cultures were seeded into flasks containing supplemented medium and maintained at 37 °C in a humidified atmosphere of 5% CO2. For assays, cells (1.0 × 10^5 cells/well) were seeded in a 96-well plate in complete medium, the medium was removed after 24 h, and cells were exposed to the increasing concentrations of compounds 8q or 8r (0, 25, 50, 125, 200, 300, 400, and 500 μM) in DMEM with no serum for a further 24 h. Cell survival was measured through a CCK-8 assay. All compounds were dissolved in pure DMSO.

[5] = test system: SH-SY5Y cells; type: cell-based
Description: To probe whether such a type of target compounds involves cytotoxic effects, we respectively treated HepG2 cells and SH-SY5Y cells with several concentrations of the corresponding compound. Cell viability was determined by a CCK-8 assay.
SH-SY5Y cells (human neuroblastoma cell line from American Type Culture Collection, ATCC, Manassas, VA, USA) were seeded into 96-well plates at a density of 4 × 10^4 cells/mL in Dulbecco’s modified Eagle’s medium (DMEM) supplemented with 10% FBS and 100 U/mL of penicillin/streptomycin (Gino Biomedical Technology Co. LTD., Hangzhou, China), and incubated in a humidified atmosphere containing 5% CO2 at 37 °C. […] After this incubation, 10 μL/well of CCK-8 (5 mg/mL) was added and incubated at 37 °C for 4 h. The optical density (OD) of each well was measured using an Epoch Microplate Spectrophotometer (BioTek Instruments, Inc., Winooski, VT, USA) with a test wavelength of 450, 630 nm.

T2 sequence (O42275 24-633): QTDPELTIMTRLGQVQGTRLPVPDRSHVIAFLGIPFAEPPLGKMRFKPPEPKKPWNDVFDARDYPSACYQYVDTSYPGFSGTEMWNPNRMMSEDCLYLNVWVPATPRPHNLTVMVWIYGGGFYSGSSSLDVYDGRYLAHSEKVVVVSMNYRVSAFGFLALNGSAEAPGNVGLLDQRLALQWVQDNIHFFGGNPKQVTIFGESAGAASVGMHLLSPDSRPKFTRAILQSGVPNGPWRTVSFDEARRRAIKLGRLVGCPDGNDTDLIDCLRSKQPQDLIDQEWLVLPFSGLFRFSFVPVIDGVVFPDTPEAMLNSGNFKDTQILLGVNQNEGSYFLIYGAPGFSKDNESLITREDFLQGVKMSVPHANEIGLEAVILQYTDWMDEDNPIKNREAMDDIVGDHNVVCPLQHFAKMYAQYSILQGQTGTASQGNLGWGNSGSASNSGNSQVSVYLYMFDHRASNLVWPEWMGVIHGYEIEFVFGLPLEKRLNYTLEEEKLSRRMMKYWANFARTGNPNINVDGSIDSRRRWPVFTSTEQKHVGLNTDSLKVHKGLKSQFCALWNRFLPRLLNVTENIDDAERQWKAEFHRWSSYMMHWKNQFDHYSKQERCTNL
T3 sequence (P05067 672-713): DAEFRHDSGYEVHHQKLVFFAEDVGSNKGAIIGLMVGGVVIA
T1 sequence (P81908 whole entry): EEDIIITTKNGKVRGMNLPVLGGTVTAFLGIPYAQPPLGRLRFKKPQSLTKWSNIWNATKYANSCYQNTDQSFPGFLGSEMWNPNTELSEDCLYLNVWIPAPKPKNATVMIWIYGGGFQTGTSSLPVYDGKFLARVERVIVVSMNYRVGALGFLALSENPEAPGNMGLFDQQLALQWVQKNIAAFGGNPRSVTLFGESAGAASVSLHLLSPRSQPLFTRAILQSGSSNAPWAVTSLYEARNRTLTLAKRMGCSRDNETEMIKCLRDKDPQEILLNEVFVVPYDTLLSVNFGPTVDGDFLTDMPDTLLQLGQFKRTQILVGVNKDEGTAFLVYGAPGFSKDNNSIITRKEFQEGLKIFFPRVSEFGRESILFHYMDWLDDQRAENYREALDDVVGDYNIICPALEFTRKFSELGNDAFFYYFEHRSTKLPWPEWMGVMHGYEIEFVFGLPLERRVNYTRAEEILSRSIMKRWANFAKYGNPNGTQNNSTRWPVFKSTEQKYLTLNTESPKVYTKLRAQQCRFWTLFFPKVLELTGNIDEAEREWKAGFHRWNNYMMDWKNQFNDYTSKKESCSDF

Row | SMILES | IC50 [1] | Selectivity Index = IC50 (BChE)/IC50 (AChE) [2] | IC50 [2] | IC50 [3] | other results
1 | COc1cccc(C(=O)OCCCOC(=O)c2nc(C)c(C)nc2C)c1OC [Compound 8a, 3-[(2,3-Dimethoxybenzoyl)oxy]propyl 3,5,6-trimethylpyrazine-2-carboxylate] | 3630 ± 70 µM | 2.16 × 10^4 | 0.1679 ± 0.00039 µM | – | –
2 | COc1cccc(OC)c1C(=O)OCCCOC(=O)c1nc(C)c(C)nc1C [Compound 8e, 3-[(2,6-Dimethoxybenzoyl)oxy]propyl 3,5,6-trimethylpyrazine-2-carboxylate] | 340 ± 30 µM | 2.36 × 10^3 | 0.1438 ± 0.00025 µM | 55.86 ± 0.035 µM | –
3 | Nc1c2c(nc3ccccc13)CCCC2 [Tacrine, reference compound] | – | – | – | – | Cell viability ([4]; 25 µM): 99.78 ± 1.07 ^ns percentage of control; Cell viability ([4]; 50 µM): 95.02 ± 2.30 ^ns percentage of control; Cell viability ([4]; 125 µM): 83.72 ± 0.73 percentage of control; Cell viability ([4]; 200 µM): 81.80 ± 1.86 percentage of control; Cell viability ([4]; 300 µM): 74.32 ± 3.93 percentage of control; Cell viability ([4]; 400 µM): 23.61 ± 0.05 percentage of control; Cell viability ([4]; 500 µM): 19.92 ± 0.05 percentage of control; Cell viability ([5]; 25 µM): 87.89 ± 0.85 ^ns percentage of control; Cell viability ([5]; 50 µM): 88.17 ± 1.55 ^ns percentage of control; Cell viability ([5]; 125 µM): 75.42 ± 0.78 percentage of control; Cell viability ([5]; 200 µM): 48.75 ± 0.43 percentage of control; Cell viability ([5]; 300 µM): 43.39 ± 2.69 percentage of control; Cell viability ([5]; 400 µM): 34.69 ± 2.86 percentage of control
4 | COc1ccc(/C=C/C(=O)OCCCOC(=O)c2nc(C)c(C)nc2C)cc1OC [Compound 8o, 3-{[(2E)-3-(3,4-Dimethoxyphenyl)prop-2-enoyl]oxy}propyl 3,5,6-trimethyl-pyrazine-2-carboxylate] | 3970 ± 100 µM | 1.23 × 10^6 | 0.00324 ± 0.0001 µM | 45.29 ± 0.033 µM | –
5 | Cc1nc(C)c(C(=O)OCCCOC(=O)c2ccc(F)cc2)nc1C [Compound 8i, 3-[(4-Fluorobenzoyl)oxy]propyl 3,5,6-trimethylpyrazine-2-carboxylate] | – | 1.14 × 10^2 | – | 211.18 ± 0.039 µM | –
6 | Cc1nc(C)c(C(=O)OCCCOC(=O)c2cccc(Cl)c2)nc1C [Compound 8f, 3-[(3-Chlorobenzoyl)oxy]propyl 3,5,6-trimethylpyrazine-2-carboxylate] | 3270 ± 60 µM | 4.95 × 10^5 | 0.00661 ± 0.00013 µM | 45.88 ± 0.024 µM | –
7 | COc1ccc(CC(=O)OCCCOC(=O)c2nc(C)c(C)nc2C)cc1F [Compound 8n, 3-{[(3-Fluoro-4-methoxyphenyl)acetyl]oxy}propyl 3,5,6-trimethylpyrazine-2-carboxylate] | 3060 ± 340 µM | 20.67 | – | – | –
8 | Cc1nc(C)c(C(=O)OCCCOC(=O)c2cccc(F)c2)nc1C [Compound 8k, 3-[(3-Fluorobenzoyl)oxy]propyl 3,5,6-trimethylpyrazine-2-carboxylate] | 5490 ± 150 µM | 9.49 | – | 5.1 ± 0.04 µM | –
9 | COc1cc(/C=C/C(=O)OCCCOC(=O)c2nc(C)c(C)nc2C)cc(OC)c1OC [Compound 8p, 3-{[(2E)-3-(3,4,5-Trimethoxyphenyl)prop-2-enoyl]oxy}propyl 3,5,6-tri-methylpyrazine-2-carboxylate] | 4020 ± 30 µM | 4.30 × 10^4 | 0.09351 ± 0.0002 µM | 71.28 ± 0.044 µM | –
10 | COc1cc(OC)cc(C(=O)OCCCOC(=O)c2nc(C)c(C)nc2C)c1 [Compound 8b, 3-[(3,5-Dimethoxybenzoyl)oxy]propyl 3,5,6-trimethylpyrazine-2-carboxylate] | 5640 ± 380 µM | 1.27 × 10^6 | 0.00443 ± 0.00035 µM | 3.66 ± 0.104 µM | –
11 | Cc1nc(C)c(C(=O)OCCCOC(=O)c2ccc(Br)cc2)nc1C [Compound 8h, 3-[(4-Bromobenzoyl)oxy]propyl 3,5,6-trimethylpyrazine-2-carboxylate] | 2490 ± 290 µM | 2.62 | – | – | –
12 | COc1cc(CC(=O)OCCCOC(=O)c2nc(C)c(C)nc2C)cc(OC)c1OC [Compound 8l, 3-{[(3,4,5-Trimethoxyphenyl)acetyl]oxy}propyl 3,5,6-trimethylpyrazine-2-carboxylate] | 3960 ± 260 µM | 1.31 × 10^4 | 0.3034 ± 0.00026 µM | 77.45 ± 0.029 µM | –
13 | Cc1nc(C)c(C(=O)OCCCOC(=O)Cc2ccc(Br)cc2)nc1C [Compound 8m, 3-{[(4-Bromophenyl)acetyl]oxy}propyl 3,5,6-trimethylpyrazine-2-carboxylate] | – | 52.17 | – | 200.84 ± 0.016 µM | –
14 | COc1ccc(C(=O)OCCCOC(=O)c2nc(C)c(C)nc2C)c(OC)c1 [Compound 8c, 3-[(2,4-Dimethoxybenzoyl)oxy]propyl 3,5,6-trimethylpyrazine-2-carboxylate] | 2700 ± 30 µM | – | 0.3879 ± 0.00045 µM | 22.54 ± 0.014 µM | –
15 | Cc1nc(C)c(C(=O)OCCCOC(=O)c2cccc(Br)c2)nc1C [Compound 8g, 3-[(3-Bromobenzoyl)oxy]propyl 3,5,6-trimethylpyrazine-2-carboxylate] | 21100 ± 460 µM | 6.23 | – | – | –
16 | COc1ccc(C(=O)OCCCOC(=O)c2nc(C)c(C)nc2C)cc1F [Compound 8j, 3-[(3-Fluoro-4-methoxybenzoyl)oxy]propyl 3,5,6-trimethylpyrazine-2-carboxylate] | 857 ± 2 µM | 2.97 | – | 7.12 ± 0.012 µM | –
17 | COc1ccc(C(=O)OCCCOC(=O)c2nc(C)c(C)nc2C)cc1OC [Compound 8d, 3-[(3,4-Dimethoxybenzoyl)oxy]propyl 3,5,6-trimethylpyrazine-2-carboxylate] | 4290 ± 120 µM | 1.02 × 10^6 | 0.00412 ± 0.00024 µM | 51.81 ± 0.047 µM | –
